# Measurements as given in patent publication US11180474B2 (BRISTOL-MYERS SQUIBB COMPANY, priority 2016, dated 2021).
# pIC50: −log10 of the molar value. Counter-ions that a name gives are not always drawn.
# Columns and labels:
# human TLR7 = biological target: T1, human TLR7 (Homo sapiens, UniProt Q9NYK1); assay: TLR7 inhibition reporter assay (HEK-Blue cells, SEAP reporter, gardiquimod stimulation); format: cell-based; conditions: HEK-Blue cells overexpressing human TLR7, gardiquimod 7.5 μM
# T1 construct: host or cells: HEK-Blue cells
# T1 sequence (Q9NYK1 27-1049): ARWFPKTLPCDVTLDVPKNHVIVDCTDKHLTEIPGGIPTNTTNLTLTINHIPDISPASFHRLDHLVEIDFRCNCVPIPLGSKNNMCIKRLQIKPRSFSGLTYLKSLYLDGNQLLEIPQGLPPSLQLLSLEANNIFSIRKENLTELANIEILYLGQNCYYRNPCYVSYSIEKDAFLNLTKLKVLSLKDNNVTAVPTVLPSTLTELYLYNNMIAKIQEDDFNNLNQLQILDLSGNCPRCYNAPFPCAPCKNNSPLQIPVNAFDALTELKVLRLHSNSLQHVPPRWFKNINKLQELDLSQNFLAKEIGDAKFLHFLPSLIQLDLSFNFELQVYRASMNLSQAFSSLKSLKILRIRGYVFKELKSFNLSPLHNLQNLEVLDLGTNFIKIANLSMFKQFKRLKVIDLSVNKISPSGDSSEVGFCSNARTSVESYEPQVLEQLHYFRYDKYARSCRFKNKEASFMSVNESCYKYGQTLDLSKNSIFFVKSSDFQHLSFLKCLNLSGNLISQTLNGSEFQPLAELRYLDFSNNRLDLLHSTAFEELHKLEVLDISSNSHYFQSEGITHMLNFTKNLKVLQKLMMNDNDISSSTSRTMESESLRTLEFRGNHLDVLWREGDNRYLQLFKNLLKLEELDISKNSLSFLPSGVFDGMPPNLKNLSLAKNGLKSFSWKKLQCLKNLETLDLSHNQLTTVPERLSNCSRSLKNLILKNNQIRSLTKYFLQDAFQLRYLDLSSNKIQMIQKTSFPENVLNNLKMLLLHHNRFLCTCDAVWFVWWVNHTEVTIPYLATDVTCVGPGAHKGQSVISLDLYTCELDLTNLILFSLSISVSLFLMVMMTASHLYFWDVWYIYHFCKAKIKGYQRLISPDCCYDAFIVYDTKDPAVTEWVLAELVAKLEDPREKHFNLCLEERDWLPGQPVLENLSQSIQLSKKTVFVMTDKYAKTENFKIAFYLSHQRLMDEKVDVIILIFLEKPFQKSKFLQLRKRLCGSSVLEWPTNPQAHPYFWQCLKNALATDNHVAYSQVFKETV
# Description: (§1) TLR7/8/9 Inhibition Reporter Assays
# Briefly, cells are seeded into Greiner 384 well plates (15000 cells per well for TLR7, 20,000 for TLR8 and 25,000 for TLR9) and then treated with test compounds in DMSO to yield a final dose response concentration range of 0.05 nM-50 μM. […] After a 22 hour incubation at 37° C., 5% CO2, SEAP levels are determined with the addition of HEK-Blue™ Detection reagent (Invivogen), a cell culture medium that allows for detection of SEAP, according to manufacturer's specifications. The percent inhibition is determined as the % reduction in the HEK-Blue signal present in wells treated with agonist plus DMSO alone compared to wells treated with a known inhibitor.
# human TLR9 = biological target: T2, human TLR9 (Homo sapiens, UniProt Q9NR96); assay: TLR9 inhibition reporter assay (HEK-Blue cells, SEAP reporter, ODN2006 stimulation); format: cell-based; conditions: HEK-Blue cells overexpressing human TLR9, ODN2006 5 nM
# T2 construct: host or cells: HEK-Blue cells
# T2 sequence (Q9NR96 26-1032): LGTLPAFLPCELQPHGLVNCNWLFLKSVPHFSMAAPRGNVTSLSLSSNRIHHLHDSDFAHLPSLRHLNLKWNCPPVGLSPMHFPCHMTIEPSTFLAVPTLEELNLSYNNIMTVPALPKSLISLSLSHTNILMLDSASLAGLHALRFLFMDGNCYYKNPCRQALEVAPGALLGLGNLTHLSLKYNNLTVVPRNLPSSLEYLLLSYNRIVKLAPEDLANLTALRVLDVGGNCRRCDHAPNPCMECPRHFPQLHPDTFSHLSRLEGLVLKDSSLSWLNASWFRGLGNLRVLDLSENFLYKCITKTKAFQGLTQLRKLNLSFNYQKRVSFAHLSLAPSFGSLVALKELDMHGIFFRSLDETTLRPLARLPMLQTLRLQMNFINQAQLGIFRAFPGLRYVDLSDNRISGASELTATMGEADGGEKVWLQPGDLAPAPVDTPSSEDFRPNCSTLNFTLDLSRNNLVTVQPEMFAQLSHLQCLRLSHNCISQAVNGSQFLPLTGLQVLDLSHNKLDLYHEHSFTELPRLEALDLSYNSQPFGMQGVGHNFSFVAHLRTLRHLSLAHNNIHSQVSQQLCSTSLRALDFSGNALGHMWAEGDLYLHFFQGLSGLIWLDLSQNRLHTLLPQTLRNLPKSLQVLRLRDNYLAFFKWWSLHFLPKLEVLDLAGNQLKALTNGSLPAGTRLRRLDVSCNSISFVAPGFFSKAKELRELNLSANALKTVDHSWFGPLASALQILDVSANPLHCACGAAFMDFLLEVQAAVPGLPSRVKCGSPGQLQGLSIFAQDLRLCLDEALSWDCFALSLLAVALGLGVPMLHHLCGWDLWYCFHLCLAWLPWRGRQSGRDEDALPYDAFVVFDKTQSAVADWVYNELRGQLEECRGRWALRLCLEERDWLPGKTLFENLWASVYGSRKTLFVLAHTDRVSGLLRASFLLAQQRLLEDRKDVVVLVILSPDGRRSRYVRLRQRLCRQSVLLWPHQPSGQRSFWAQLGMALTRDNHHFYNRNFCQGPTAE
# Description: as §1
# HEK-Blue™-cells (Invivogen) overexpressing human TLR7, TLR8 or TLR9 receptors were used for screening inhibitors of these receptors using an inducible SEAP (secreted embryonic alkaline phosphatase) reporter gene under the control of the IFN-β minimal promoter fused to five NF-κB and AP-1-binding sites. Briefly, cells are seeded into Greiner 384 well plates (15000 cells per well for TLR7, 20,000 for TLR8 and 25,000 for TLR9) and then treated with test compounds in DMSO to yield a final dose response concentration range of 0.05 nM-50 μM. After a 30 minute compound pre-treatment at room temperature, the cells are then stimulated with a TLR7 ligand (gardiquimod at a final concentration of 7.5 μM), TLR8 ligand (R848 at a final concentration of 15.9 μM) or TLR9 ligand (ODN2006 at a final concentration of 5 nM) to activate NF-κB and AP-1 which induce the production of SEAP. After a 22 hour incubation at 37° C., 5% CO2, SEAP levels are determined with the addition of HEK-Blue™ Detection reagent (Invivogen), a cell culture medium that allows for detection of SEAP, according to manufacturer's specifications. The percent inhibition is determined as the % reduction in the HEK-Blue signal present in wells treated with agonist plus DMSO alone compared to wells treated with a known inhibitor.
SMILES,pIC50 (human TLR7),pIC50 (human TLR9)
"COc1ccc(-c2[nH]c3ccc(C4CCN(Cc5ccc(N(C)C)cc5)CC4)cc3c2C)cc1OC [Example 37, 4-((4-(2-(3,4-dimethoxyphenyl)-3-methyl-1H-indol-5-yl)piperidin-1-yl)methyl)-N,N-dimethylaniline]",5.98,6.20
"COc1ccc(-c2[nH]c3ccc(C4CCN(Cc5csnn5)CC4)cc3c2C)cc1OC [Example 41, 4-((4-(2-(3,4-dimethoxyphenyl)-3-methyl-1H-indol-5-yl)piperidin-1-yl)methyl)-1,2,3-thiadiazole]",5.63,5.42
"COc1ccc(-c2[nH]c3ccc(C4CCN(CCCO)CC4)cc3c2C)cc1OC [Example 5, 3-(4-(2-(3,4-dimethoxyphenyl)-3-methyl-1H-indol-5-yl)piperidin-1-yl)propan-1-ol]",5.77,6.35
"COc1ccc(-c2[nH]c3ccc(C4CCN(C5CCN(C6CCC6)CC5)CC4)cc3c2C)cc1OC [Example 61, 5-(1′-cyclobutyl-[1,4′-bipiperidin]-4-yl)-2-(3,4-dimethoxyphenyl)-3-methyl-1H-indole]",5.80,6.26
"CCNCC(=O)N1CCC(c2ccc3[nH]c(-c4ccc(OC)c(OC)c4)c(C)c3c2)CC1 [Example 113, 1-(4-(2-(3,4-dimethoxyphenyl)-3-methyl-1H-indol-5-yl)piperidin-1-yl)-2-(ethylamino)ethan-1-one]",6.43,6.05
"COc1ccc(-c2[nH]c3ccc(C4CCN(Cc5ccc(-n6cncn6)cc5)CC4)cc3c2C)cc1OC [Example 34, 5-(1-(4-(1H-1,2,4-triazol-1-yl)benzyl)piperidin-4-yl)-2-(3,4-dimethoxyphenyl)-3-methyl-1H-indole]",6.17,6.46
"CCc1c(-c2ccc(OC)c(OC)c2)[nH]c2ccc(C3CCN(C(=O)CNC4(CO)CCCC4)CC3)cc12 [Example 160, 1-(4-(2-(3,4-dimethoxyphenyl)-3-ethyl-1H-indol-5-yl)piperidin-1-yl)-2-((1-(hydroxymethyl)cyclopentyl)amino)ethan-1-one]",6.93,5.72
"COc1ccc(-c2[nH]c3ccc(C4CCN(Cc5ccc(N(C)C)cc5)CC4)cc3c2C(C)C)cc1OC [Example 270, 4-((4-(2-(3,4-dimethoxyphenyl)-3-isopropyl-1H-indol-5-yl)piperidin-1-yl)methyl)-N,N-dimethylaniline]",6.72,5.71
"COc1ccc(-c2[nH]c3ccc(C4CCN(C5CCN(CCCC(=O)O)CC5)CC4)cc3c2C)cc1OC [Example 70, 4-(4-(2-(3,4-dimethoxyphenyl)-3-methyl-1H-indol-5-yl)-[1,4′-bipiperidin]-1′-yl)butanoic acid]",5.43,5.64
"COc1ccc(-c2[nH]c3ccc(C4CCN(C5CCCC(N(C)C)C5)CC4)cc3c2C)cc1OC (stereo not drawn) [Example 25, 3-(4-(2-(3,4-dimethoxyphenyl)-3-methyl-1H-indol-5-yl)piperidin-1-yl)-N,N-dimethylcyclohexan-1-amine]",6.50,6.77
"CCc1c(-c2ccc(OC)c(OC)c2)[nH]c2ccc(C3CCN(C(=O)CN(C)C(C)C)CC3)cc12 [Example 170, 1-(4-(2-(3,4-dimethoxyphenyl)-3-ethyl-1H-indol-5-yl)piperidin-1-yl)-2-(isopropyl(methyl)amino) ethan-1-one]",6.59,5.78
"COc1ccc(-c2[nH]c3ccc(C4CCN(Cc5ccc(N(C)C)c6ccccc56)CC4)cc3c2C)cc1OC [Example 19, 4-((4-(2-(3,4-dimethoxyphenyl)-3-methyl-1H-indol-5-yl)piperidin-1-yl)methyl)-N,N-dimethylnaphthalen-1-amine]",4.98,5.59
"COc1ccc(-c2[nH]c3ccc(C4CCN(C(C)CN(C)C)CC4)cc3c2C)cc1OC (stereo not drawn) [Example 30, 2-(4-(2-(3,4-dimethoxyphenyl)-3-methyl-1H-indol-5-yl)piperidin-1-yl)-N,N-dimethylpropan-1-amine]",6.18,6.07
"COc1ccc(-c2[nH]c3ccc(C4CCN(C5CCN(C)CC5)CC4)cc3c2C)cc1OC [Example 11, 2-(3,4-dimethoxyphenyl)-3-methyl-5-(1′-methyl-[1,4′-bipiperidin]-4-yl)-1H-indole]",6.03,6.67
"COc1ccc(-c2[nH]c3ccc(C4CCN(Cc5ccnc6ccccc56)CC4)cc3c2C)cc1OC [Example 32, 4-((4-(2-(3,4-dimethoxyphenyl)-3-methyl-1H-indol-5-yl)piperidin-1-yl)methyl)quinoline]",5.61,5.45
"COc1ccc(-c2[nH]c3ccc(C4CCN(Cc5cccc(C#N)c5)CC4)cc3c2C(C)C)cc1OC [Example 264, 3-((4-(2-(3,4-dimethoxyphenyl)-3-isopropyl-1H-indol-5-yl)piperidin-1-yl)methyl)benzonitrile]",6.44,5.29
"COc1ccc(-c2[nH]c3ccc(C4CCN(Cc5ccc(OC(F)(F)F)cc5)CC4)cc3c2C(C)C)cc1OC [Example 271, 2-(3,4-dimethoxyphenyl)-3-isopropyl-5-(1-(4-(trifluoromethoxy)benzyl)piperidin-4-yl)-1H-indole]",5.62,4.98
"COc1ccc(-c2[nH]c3ccc(C4CCN(C5CCNCC5)CC4)cc3c2C)cc1OC [Example 2, 5-([1,4′-bipiperidin]-4-yl)-2-(3,4-dimethoxyphenyl)-3-methyl-1H-indole dihydrochloride]",6.01,6.69
